# Measurements taken from patent US10336739B2, “4-hydroxy-3-(heteroaryl)pyridine-2-one APJ agonists” (BRISTOL-MYERS SQUIBB COMPANY, priority 2015, dated 2019).
# Target: human APJ receptor (Homo sapiens (Human), UniProt P35414)
# Assay: Intracellular cAMP accumulation assay (APJ hcAMP, HTRF)
# Format: cell-based
# Details: HEK293 cells stably expressing human APJ receptor; inhibition of forskolin-mediated cAMP production; read-out: Human APJ cAMP EC50 Potency range
# In short: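 HEK293 cells stably expressing human APJ, 5,000 per well, exposed to compound with […] IBMX and 2 μM forskolin for 30 minutes at room temperature. cAMP measured by HTRF after lysis and 60 min detection incubation. EC50 from sigmoidal variable-slope fits of inhibition of forskolin-induced cAMP, quantified against a cAMP standard curve.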
# Sequence of human APJ receptor (P35414 whole entry): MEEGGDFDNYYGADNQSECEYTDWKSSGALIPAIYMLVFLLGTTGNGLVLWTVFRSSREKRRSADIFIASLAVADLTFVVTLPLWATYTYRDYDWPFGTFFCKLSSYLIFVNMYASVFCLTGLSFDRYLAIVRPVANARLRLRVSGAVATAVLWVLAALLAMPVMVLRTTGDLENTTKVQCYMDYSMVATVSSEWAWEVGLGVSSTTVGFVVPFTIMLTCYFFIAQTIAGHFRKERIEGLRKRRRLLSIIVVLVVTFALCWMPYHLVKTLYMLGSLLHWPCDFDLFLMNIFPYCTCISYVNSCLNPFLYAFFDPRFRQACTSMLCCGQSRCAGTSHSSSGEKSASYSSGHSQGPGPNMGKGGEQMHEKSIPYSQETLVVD
row,EC50 [nM],Structure (SMILES)
1,0.01 to 10,"CCCCc1nc(O)c(-c2nnc(CC(=O)N(CC)CC)o2)c(O)c1-c1c(OC)cccc1OC [Example 177, 2-{5-[6-butyl-5-(2,6-dimethoxyphenyl)-2,4-dihydroxypyridin-3-yl]-1,3,4-oxadiazol-2-yl}-N,N-diethylacetamide]"

# Same assay, conditions: HEK293 cells stably expressing human APJ receptor; inhibition of forskolin-mediated cAMP production; read-out: hAPJ cAMP EC50 Potency range
row,Structure (SMILES),EC50 [nM]
1,"CCCCc1nc(O)c(-c2nnc(CN(C)C(=O)c3cccnc3)o2)c(O)c1-c1c(OC)cccc1OC [Example 165, N-({5-[6-butyl-5-(2,6-dimethoxyphenyl)-2,4-dihydroxypyridin-3-yl]-1,3,4-oxadiazol-2-yl}methyl)-N-methylpyridine-3-carboxamide]",0.01 to 10
2,"CCCCc1nc(O)c(-c2nnc(CNC(=O)Cc3ccccc3)o2)c(O)c1-c1c(OC)cccc1OC [Example 166, N-({5-[6-butyl-5-(2,6-dimethoxyphenyl)-2,4-dihydroxypyridin-3-yl]-1,3,4-oxadiazol-2-yl}methyl)-2-phenylacetamide]",0.01 to 10
3,"CCCCc1nc(O)c(-c2nnc(CNC(=O)C(C)(C)C)o2)c(O)c1-c1c(OC)cccc1OC [Example 167, N-({5-[6-butyl-5-(2,6-dimethoxyphenyl)-2,4-dihydroxypyridin-3-yl]-1,3,4-oxadiazol-2-yl}methyl)-2,2-dimethyl-propanamide]",0.01 to 10
4,"CCCCc1nc(O)c(-c2nnc(CNC(=O)c3ccccn3)o2)c(O)c1-c1c(OC)cccc1OC [Example 168, N-({5-[6-butyl-5-(2,6-dimethoxyphenyl)-2,4-dihydroxypyridin-3-yl]-1,3,4-oxadiazol-2-yl}methyl)pyridine-2-carboxamide]",0.01 to 10
5,"CCCCc1nc(O)c(-c2nnc(CN(C)C(=O)C(C)(C)C)o2)c(O)c1-c1c(OC)cccc1OC [Example 169, N-({5-[6-butyl-5-(2,6-dimethoxyphenyl)-2,4-dihydroxypyridin-3-yl]-1,3,4-oxadiazol-2-yl}methyl)-N,2,2-trimethyl-propanamide]",0.01 to 10
6,"CCCCc1nc(O)c(-c2nnc(CNC(=O)c3ccccc3)o2)c(O)c1-c1c(OC)cccc1OC [Example 171, N-({5-[6-butyl-5-(2,6-dimethoxyphenyl)-2,4-dihydroxypyridin-3-yl]-1,3,4-oxadiazol-2-yl}methyl) benzamide]",0.01 to 10
7,"CCCCc1nc(O)c(-c2nnc(CN(C)C(=O)c3ccccc3)o2)c(O)c1-c1c(OC)cccc1OC [Example 172, N-({5-[6-butyl-5-(2,6-dimethoxyphenyl)-2,4-dihydroxypyridin-3-yl]-1,3,4-oxadiazol-2-yl}methyl)-N-methylbenzamide]",0.01 to 10
8,"CCOCc1nc(O)c(-c2nnc(CNC(=O)c3ccccc3)o2)c(O)c1-c1c(OC)cccc1OC [Example 173, N-({5-[5-(2,6-dimethoxyphenyl)-6-(ethoxymethyl)-2,4-dihydroxypyridin-3-yl]-1,3,4-oxadiazol-2-yl}methyl) benzamide]",0.01 to 10
9,"CCCCc1nc(O)c(-c2nnc(CNC(=O)CC(C)C)o2)c(O)c1-c1c(OC)cccc1OC [Example 174, N-({5-[6-butyl-5-(2,6-dimethoxyphenyl)-2,4-dihydroxypyridin-3-yl]-1,3,4-oxadiazol-2-yl}methyl)-3-methylbutanamide]",0.01 to 10
10,"CCCCc1nc(O)c(-c2nnc(CNC(=O)C(F)(F)F)o2)c(O)c1-c1c(OC)cccc1OC [Example 176, N-({5-[6-butyl-5-(2,6-dimethoxyphenyl)-2,4-dihydroxypyridin-3-yl]-1,3,4-oxadiazol-2-yl}methyl)-2,2,2-trifluoroacetamide]",10 to 100
11,"CCCCc1nc(O)c(-c2nnc(CC(=O)NCc3ccccn3)o2)c(O)c1-c1c(OC)cccc1OC [Example 178, 2-{5-[6-butyl-5-(2,6-dimethoxyphenyl)-2,4-dihydroxypyridin-3-yl]-1,3,4-oxadiazol-2-yl}-N-(pyridin-2-ylmethyl)acetamide]",10 to 100
12,"CCCCc1nc(O)c(-c2nnc(CC(=O)Nc3ccc(OC)cc3)o2)c(O)c1-c1c(OC)cccc1OC [Example 183, 2-{5-[6-butyl-5-(2,6-dimethoxyphenyl)-2,4-dihydroxypyridin-3-yl]-1,3,4-oxadiazol-2-yl}-N-(4-methoxyphenyl) acetamide]",10 to 100
13,"CCCCc1nc(O)c(-c2nnc(CC(=O)N3CCNC(=O)C3)o2)c(O)c1-c1c(OC)cccc1OC [Example 184, 4-(2-{5-[6-butyl-5-(2,6-dimethoxyphenyl)-2,4-dihydroxypyridin-3-yl]-1,3,4-oxadiazol-2-yl}acetyl) piperazin-2-one]",0.01 to 10
14,"CCCCc1nc(O)c(-c2nnc(CC(=O)NCc3ccccc3)o2)c(O)c1-c1c(OC)cccc1OC [Example 186, N-benzyl-2-{5-[6-butyl-5-(2,6-dimethoxyphenyl)-2,4-dihydroxypyridin-3-yl]-1,3,4-oxadiazol-2-yl}acetamide]",0.01 to 10

# Results, then the compound that gave them:
row,EC50 [nM],Structure (SMILES)
1,10 to 100,"CCCCc1nc(O)c(-c2nnc(CN)o2)c(O)c1-c1c(OC)cccc1OC [Example 170, 3-[5-(aminomethyl)-1,3,4-oxadiazol-2-yl]-6-butyl-5-(2,6-dimethoxyphenyl) pyridine-2,4-diol]"
2,0.01 to 10,"CCCCc1nc(O)c(-c2nnc(CNC(C)=O)o2)c(O)c1-c1c(OC)cccc1OC [Example 175, N-({5-[6-butyl-5-(2,6-dimethoxyphenyl)-2,4-dihydroxypyridin-3-yl]-1,3,4-oxadiazol-2-yl}methyl) acetamide]"
3,0.01 to 10,"CCCCc1nc(O)c(-c2nnc(CC(=O)NC)o2)c(O)c1-c1c(OC)cccc1OC [Example 179, 2-{5-[6-butyl-5-(2,6-dimethoxyphenyl)-2,4-dihydroxypyridin-3-yl]-1,3,4-oxadiazol-2-yl}-N-methylacetamide]"
4,10 to 100,"CCCCc1nc(O)c(-c2nnc(CC(N)=O)o2)c(O)c1-c1c(OC)cccc1OC [Example 180, 2-{5-[6-butyl-5-(2,6-dimethoxyphenyl)-2,4-dihydroxypyridin-3-yl]-1,3,4-oxadiazol-2-yl}acetamide]"
5,0.01 to 10,"CCCCc1nc(O)c(-c2nnc(CC(=O)NC(C)C)o2)c(O)c1-c1c(OC)cccc1OC [Example 181, 2-{5-[6-butyl-5-(2,6-dimethoxyphenyl)-2,4-dihydroxypyridin-3-yl]-1,3,4-oxadiazol-2-yl}-N-(propan-2-yl)acetamide]"
6,0.01 to 10,"CCCCc1nc(O)c(-c2nnc(CC(=O)N(C)C)o2)c(O)c1-c1c(OC)cccc1OC [Example 182, 2-{5-[6-butyl-5-(2,6-dimethoxyphenyl)-2,4-dihydroxypyridin-3-yl]-1,3,4-oxadiazol-2-yl}-N,N-dimethylacetamide]"
7,0.01 to 10,"CCCCc1nc(O)c(-c2nnc(CC(=O)NCC)o2)c(O)c1-c1c(OC)cccc1OC [Example 187, 2-{5-[6-butyl-5-(2,6-dimethoxyphenyl)-2,4-dihydroxypyridin-3-yl]-1,3,4-oxadiazol-2-yl}-N-ethylacetamide]"
8,0.01 to 10,"CCCCc1nc(O)c(-c2nnc(CC(=O)NC3CC3)o2)c(O)c1-c1c(OC)cccc1OC [Example 188, 2-{5-[6-butyl-5-(2,6-dimethoxyphenyl)-2,4-dihydroxypyridin-3-yl]-1,3,4-oxadiazol-2-yl}-N-cyclo-propylacetamide]"

# Same assay, conditions: hAPJ cAMP EC50 Potency range (nM), HEK293 cells stably expressing human APJ receptor; inhibition of forskolin-mediated cAMP production
row,Structure (SMILES),EC50 [nM]
1,"CCCCc1nc(O)c(-c2nnc(CC(=O)N3CCN(C)CC3)o2)c(O)c1-c1c(OC)cccc1OC [Example 185, 2-{5-[6-butyl-5-(2,6-dimethoxyphenyl)-2,4-dihydroxypyridin-3-yl]-1,3,4-oxadiazol-2-yl}-1-(4-methylpiperazin-1-yl)ethan-1-one]",10 to 100
